The values below are quoted from earlier work in patent US8734826B2 (priority 2005, dated 2014).

Where two headings read alike, the source gives them in different places.

Series [1] relates to anal sphincter. To be noted: in vivo.
The subject of series [2] is anal fissure. The conditions noted are these: in vivo.
Series [3] has as its system internal anal sphincter smooth muscle.
In series [4] the test system is pre-synaptic cholinergic nerve terminals. To be noted: in vivo.
For series [5] the following is noted: in vivo.

`N=C(N)NCCC[C@H](N)C(=O)O` [L-arginine]: the resting anal pressure entry in series [1] was “causes a reduction in resting anal pressure”.
`CC(C[N+](C)(C)C)OC(N)=O` (centres unmarked) [bethanecol]: in series [2], the “healing of anal fissures” value is “increased healing of anal fissures”. Also, in series [1], the resting anal pressure result is on record as “reducing resting anal pressure”.
As for `COc1ccc([C@@H]2Sc3ccccc3N(CCN(C)C)C(=O)[C@@H]2OC(C)=O)cc1` [diltiazem], in series [2], the fissure healing result is “results in fissure healing”. Moreover, the resting anal pressure result in series [1] was “reduce resting anal pressure”; in series [1] (po) it was “caused a reduction in resting anal pressure”.
For the molecule `O=C(NC1CCN(CCc2c[nH]c3ccccc23)CC1)c1ccccc1` [indoramin], the resting anal pressure entry in series [1] (po) is “reduce resting anal pressure”.
Consider `O=[N+]([O-])O[C@H]1CO[C@H]2[C@@H]1OC[C@H]2O[N+](=O)[O-]` [isorbide dinitrate], for which the “relaxation of internal anal sphincter smooth muscle” value in series [3] is listed as “cause a relaxation of internal anal sphincter smooth muscle”. Besides, the “pain reduction and fissure healing” value in series [2] is “pain reduction and increased fissure healing”.
For `O=[N+]([O-])OCC(CO[N+](=O)[O-])O[N+](=O)[O-]` [nitroglycerin], the “relaxation of internal anal sphincter smooth muscle” value in series [3] is “cause a relaxation of internal anal sphincter smooth muscle”. For the same molecule, in series [2], the “pain reduction and fissure healing” value was “pain reduction and increased fissure healing”.
On to `CC(C)(C)NCC(O)c1ccc(O)c(CO)c1` (centres unmarked) [salbutamol], for which the resting anal pressure entry in series [1] is “reduce resting anal pressure”.
Botulinum toxin: in series [2], the fissure healing result is recorded as “healing of the fissure”; the “pain and fissure healing” value is “reduced pain and promoted fissure healing”. The voluntary squeeze pressure result in series [1] is listed as “reduction in voluntary squeeze pressure”. Also, the “duration of clinical weakening of the muscle” value in series [4] is recorded as 3 to 4 months. Further, the peri-anal thrombosis entry in series [5] is listed as “peri-anal thrombosis has been reported in some patients”.
